# From publication PMC3733247 (Journal of medicinal chemistry, 2013)
# Molecular target: HIV-1 RT (Human immunodeficiency virus type 1 group M subtype B, UniProt P03366)
# Assay: Steady-state competition assay, IC50 determination
# Assay type: biochemical
# Conditions: dTTP incorporation, ratio of IC50 values
SMILES,fold decrease in potency relative to the TMC-derivative [fold],fold improvement of polymerization inhibition over propargyl-4PEG-TMC [fold],fold improvement of polymerization inhibition relative to the TMC-derivative,fold improvement of polymerization inhibition relative to the TMC-derivative (listed as triphosphate of d4T-4PEG-TMC) [fold]
"C#CCOCCOCCOCCOCCOCC#Cc1cc(C)c(Oc2ccnc(Nc3ccc(C#N)cc3)n2)c(C)c1 [propargyl-4PEG-TMC, 4-[4-(4-{3-[2-(2-{2-[2-(Prop-2-ynyloxy)ethoxy]ethoxy}ethoxy)-ethoxy]prop-1-ynyl}-2,6-dimethylphenoxy)pyrimidin-2-ylamino]-benzonitrile]",10,–,–,–
"Cc1cc(C#CCOCCOCCOCCOCCOCC#Cc2cn([C@H]3C=C[C@@H](COP(=O)(O)OP(=O)(O)OP(=O)(O)O)O3)c(=O)[nH]c2=O)cc(C)c1Oc1ccnc(Nc2ccc(C#N)cc2)n1 [d4TTP-4PEG-TMC, d4U-Propynyl-4-PEG-propynyl-TMC-triphosphate]",–,40,approximately 4.3 fold,4.3
